Measurements from patent US12201610B2, “Compositions comprising aticaprant” (Janssen Pharmaceuticals, Inc., priority 2022, dated 2025).

System: subjects with MDD
Assay: SHAPS total score / anhedonia level (Example 6)
Assay type: in vivo, human
Settings: for SHAPS Total Score Change from Baseline LSMean (SE) / SHAPS Total Score LSMean Difference (SE) Treatment Placebo: MMRM; for SHAPS Total Score Effect Size: negative favors aticaprant
Description: To assess a potential effect on anhedonia, an anhedonia scale may be used. For example, the Snaith-Hamilton Pleasure Scale (SHAPS) analysis is a validated scale for the measurement of anhedonia. The SHAPS is a subject completed scale in which subjects score whether or not they experience pleasure in performing a list of activities or experiences. The SHAPS is a self-reported 14-item instrument, developed for the assessment of hedonic capacity. Subjects score whether they experience pleasure in performing a list of activities or experiences. Subjects can rate the answers as 1-4 where 1 indicates “Definitely agree”, 2 indicates “Agree”, 3 indicates “Disagree” and 4 indicates “Definitely disagree”. The subject's item responses are summed to provide a total score ranging from 14 to 56. A higher total SHAPS score indicates higher levels of current anhedonia. Physician/clinical judgment can be used to assess anhedonia separately or in conjunction with an anhedonia scale.
In some embodiments, the patient has moderate anhedonia. In other embodiments, the patient has severe anhedonia. An assessment of moderate or severe anhedonia is typically determined physician/clinical judgment and/or by one or more tests that provide insight into whether a patient has anhedonia. For example, the severity of the anhedonia may be determined using the SHAPS method. In some embodiments, a patient with moderate or severe anhedonia is considered to have a high level of anhedonia. For example, a patient with a SHAPS score of 38 or greater is considered to have moderate to severe anhedonia that can be considered a high level of anhedonia. In some embodiments, a high level of anhedonia is reflected by a SHAPS score of at least about 40, about 42, about 44, about 46, about 48, about 50, about 52, about 54, about 56, […]. A patient with mild or no anhedonia would be considered to have a low level of anhedonia that is assessed by physician/clinical judgment and/or one or more tests. For example, a patient with a SHAPS score of less than 38 is considered to have low anhedonia. In certain embodiments, a patient with mild anhedonia may have a SHAPS score of 20 to less than 38, for example, a SHAPS score of 20 to about 36, about 22 to about 36, about 24 to about 36, about 26 to about 36, about 26 to about 34, about 26 to about 32, about 26 to about 30, about 26 to about 28, about 28 to about 36, about 28 to about 36, about 30, to about 36, about 32 to about 36, about 34 to about 36, about 20 to about 34, about 22 to about 34, about 24 to about 34, about 26 to about 32, about 26 to about 30, about 26 to about 28, about 28 to about 36, about 28 to about 34, about 28 to about 32, about 28 to about 30, about 30 to about 36, about 30 to about 34, about 30 to about 32, about 32 to about 36, about 32 to about 34, or about 34 to about 36. Typically, a SHAPS score of less than 20 can be considered to correspond to normal hedonic functioning, and for purposes of this disclosure, would fall into the low category of anhedonia, e.g., a SHAPS score of less than 38.
iii. To investigate the effect of aticaprant versus placebo on depression related anhedonia as assessed by the SHAPS.
• (i) Depression: Montgomery-Åsberg Depression Rating Scale (MADRS), Clinical Global Impression-Severity (CGI-S), Symptoms of Major Depressive Disorder Scale (SMDDS), and Self-assessment of treatment experience (SATE) • (ii) Anhedonia: Snaith-Hamilton Pleasure Scale (SHAPS) • (iii) Anxiety: Structured Interview Guide for the Hamilton Anxiety scale (SIGH-A) and HAM-A6 • (iv) Effects on Cognition: The Cognitive and Physical Functioning Questionnaire (CPFQ) • (v) Safety assessments
Changes in SHAPS total score were analyzed with the same MMRM model used for MADRS total score. The estimated LS Mean difference with 80% 2-sided CI at treatment week 6 between aticaprant and placebo was −0.7 [−1.81, 0.41]. See, FIG. 7 and Tables 28 and 29 and FIG. 18. The corresponding p-value was 0.419.

[1] = eITT Analysis Set, Treatment Baseline
[2] = eITT Analysis Set, Treatment Week 1
[3] = eITT Analysis Set, Treatment Week 3
[4] = eITT Analysis Set, Treatment Week 4
[5] = eITT Analysis Set, Treatment Week 5
[6] = eITT Analysis Set, Treatment Week 6
[7] = eITT, Treatment Week 1, 10 mg adjunctive to SSRI/SNRI
[8] = eITT, Treatment Week 3, 10 mg adjunctive to SSRI/SNRI
[9] = eITT, Treatment Week 4, 10 mg adjunctive to SSRI/SNRI
[10] = eITT, Treatment Week 5, 10 mg adjunctive to SSRI/SNRI
[11] = eITT, Treatment Week 6, 10 mg adjunctive to SSRI/SNRI
[12] = fITT Analysis Set, Baseline/Day 22, Table 42
[13] = fITT Analysis Set, Treatment Baseline
[14] = fITT Analysis Set, Treatment Week 1
[15] = fITT Analysis Set, Treatment Week 3
[16] = fITT Analysis Set, Treatment Week 4
[17] = fITT Analysis Set, Treatment Week 5
[18] = fITT Analysis Set, Treatment Week 6

Cc1cc(C)cc(C2CCCN2Cc2ccc(Oc3ccc(C(N)=O)cc3F)cc2)c1 (centres unmarked) [aticaprant, 3-fluoro-4-4-2-(3,5-dimethylphenyl)pyrrolidin-1-yl-methylphenoxybenzamide]
SHAPS total score estimated LS mean difference between aticaprant and placebo, MMRM (Treatment Week 6, population not given, follows Table 29 (fITT)): −0.8 | Frequency of subjects: High Level of Anhedonia (SHAPS Total Score >= 38), % [1]: (43.33%) | Frequency of subjects: Low Level of Anhedonia (20 <= SHAPS Total Score < 38), % [1]: 56.67% | SHAPS Total Score Change from Baseline Mean (SD) [2]: −1.9 | SHAPS Total Score Mean (SD) [2]: 34.5 | SHAPS Total Score Change from Baseline LSMean (SE) [2]: −1.7 | SHAPS Total Score LSMean Difference (SE) Treatment Placebo [2]: −0.8 (0.86) | SHAPS Total Score Change from Baseline Mean (SD) [3]: −3.4 | SHAPS Total Score Mean (SD) [3]: 33.0 | SHAPS Total Score Change from Baseline LSMean (SE) [3]: −3.2 | SHAPS Total Score LSMean Difference (SE) Treatment Placebo [3]: −1.4 (0.86) | SHAPS Total Score Change from Baseline Mean (SD) [4]: −4.5 | SHAPS Total Score Mean (SD) [4]: 32.0 | SHAPS Total Score Change from Baseline LSMean (SE) [4]: −4.3 | SHAPS Total Score LSMean Difference (SE) Treatment Placebo [4]: −1.4 (0.86) | SHAPS Total Score Change from Baseline Mean (SD) [5]: −4.3 | SHAPS Total Score Mean (SD) [5]: 32.4 | SHAPS Total Score Change from Baseline LSMean (SE) [5]: −4.0 | SHAPS Total Score LSMean Difference (SE) Treatment Placebo [5]: −0.5 (0.87) | Frequency of subjects: High Level of Anhedonia (SHAPS Total Score >= 38), % [6]: (13.56%) | Frequency of subjects: Low Level of Anhedonia (20 <= SHAPS Total Score < 38), % [6]: 81.36% | Frequency of subjects: No Anhedonia (SHAPS Total Score < 20), % [6]: 5.08% | SHAPS Total Score Change from Baseline Mean (SD) [6]: −4.6 | SHAPS Total Score Mean (SD) [6]: 31.9 | SHAPS Total Score Change from Baseline LSMean (SE) [6]: −4.4 | SHAPS Total Score LSMean Difference (SE) Treatment Placebo [6]: −0.7 (0.87) | SHAPS Total Score Mean Change from Baseline (SD) [7]: −1.9 (4.30) | SHAPS Total Score Mean Change to Placebo (SD pooled) [7]: −0.6 (3.77) | SHAPS Total Score Effect Size (eITT, Treatment Week 1, vs placebo): −0.15 | SHAPS Total Score Mean Change from Baseline (SD) [8]: −3.4 (5.25) | SHAPS Total Score Mean Change to Placebo (SD pooled) [8]: −1.2 (4.96) | SHAPS Total Score Effect Size (eITT, Treatment Week 3, vs placebo): −0.25 | SHAPS Total Score Mean Change from Baseline (SD) [9]: −4.5 (5.89) | SHAPS Total Score Mean Change to Placebo (SD pooled) [9]: −1.2 (5.21) | SHAPS Total Score Effect Size (eITT, Treatment Week 4, vs placebo): −0.23 | SHAPS Total Score Mean Change from Baseline (SD) [10]: −4.3 (6.07) | SHAPS Total Score Mean Change to Placebo (SD pooled) [10]: −0.4 (5.49) | SHAPS Total Score Effect Size (eITT, Treatment Week 5, vs placebo): −0.08 | SHAPS total score estimated LS mean difference between aticaprant and placebo, MMRM (eITT, Treatment Week 6): −0.7 | SHAPS Total Score Mean Change from Baseline (SD) [11]: −4.6 (6.23) | SHAPS Total Score Mean Change to Placebo (SD pooled) [11]: −0.4 (5.66) | Frequency of subjects: Anhedonia (SHAPS Total Score >=20), % [12]: 98.8% | Frequency of subjects: No Anhedonia (SHAPS Total Score < 20), % [12]: 1.2% | Frequency of subjects: High Level of Anhedonia (SHAPS Total Score >= 38), % [13]: 36.14% | Frequency of subjects: Low Level of Anhedonia (20 >= SHAPS Total Score <38), % [13]: 62.65% | Frequency of subjects: No Anhedonia (SHAPS Total Score < 20), % (fITT Analysis Set, Treatment Baseline, Table 44): 1.2% | SHAPS Total Score Mean (SD) [14]: 32.9 | SHAPS Total Score Mean Change to Placebo (SD pooled) [14]: −0.6 (3.82) | SHAPS Total Score Change from Baseline Mean (SD) (fITT Analysis Set, Treatment Week 1 (Table 29)): −2.0 | SHAPS Total Score Mean Change from Baseline (SD) (fITT Analysis Set, Treatment Week 1 (Table 30)): −2.0 (4.05) | SHAPS Total Score Change from Baseline LSMean (SE) [14]: −1.9 | SHAPS Total Score LSMean Difference (SE) Treatment Placebo [14]: −1.0 (0.72) | SHAPS Total Score Effect Size [14]: −0.15 | SHAPS Total Score Mean (SD) [15]: 31.9 | SHAPS Total Score Mean Change to Placebo (SD pooled) [15]: −1.0 (5.09) | SHAPS Total Score Change from Baseline Mean (SD) (fITT Analysis Set, Treatment Week 3 (Table 29)): −3.2 | SHAPS Total Score Mean Change from Baseline (SD) (fITT Analysis Set, Treatment Week 3 (Table 30)): −3.2 (5.07) | SHAPS Total Score Change from Baseline LSMean (SE) [15]: −3.1 | SHAPS Total Score LSMean Difference (SE) Treatment Placebo [15]: −1.4 (0.73) | SHAPS Total Score Effect Size [15]: −0.20 | SHAPS Total Score Mean (SD) [16]: 30.8 | SHAPS Total Score Mean Change to Placebo (SD pooled) [16]: −1.2 (5.08) | SHAPS Total Score Change from Baseline Mean (SD) (fITT Analysis Set, Treatment Week 4 (Table 29)): −4.2 | SHAPS Total Score Mean Change from Baseline (SD) (fITT Analysis Set, Treatment Week 4 (Table 30)): −4.2 (5.70) | SHAPS Total Score Change from Baseline LSMean (SE) [16]: −4.1 | SHAPS Total Score LSMean Difference (SE) Treatment Placebo [16]: −1.6 (0.73) | SHAPS Total Score Effect Size [16]: −0.23 | SHAPS Total Score Mean (SD) [17]: 30.9 | SHAPS Total Score Mean Change to Placebo (SD pooled) [17]: −0.5 (5.24) | SHAPS Total Score Change from Baseline Mean (SD) (fITT Analysis Set, Treatment Week 5 (Table 29)): −4.3 | SHAPS Total Score Mean Change from Baseline (SD) (fITT Analysis Set, Treatment Week 5 (Table 30)): −4.3 (5.70) | SHAPS Total Score Change from Baseline LSMean (SE) [17]: −4.1 | SHAPS Total Score LSMean Difference (SE) Treatment Placebo [17]: −0.8 (0.73) | SHAPS Total Score Effect Size [17]: −0.09 | Frequency of subjects: High Level of Anhedonia (SHAPS Total Score >= 38), % [18]: 10.39% | Frequency of subjects: Low Level of Anhedonia (20 >= SHAPS Total Score <38), % [18]: 80.52% | Frequency of subjects: No Anhedonia (SHAPS Total Score < 20), % [18]: 9.09% | SHAPS Total Score Mean (SD) [18]: 30.5 | SHAPS Total Score Mean Change to Placebo (SD pooled) [18]: −0.5 (5.45) | SHAPS Total Score Change from Baseline Mean (SD) (fITT Analysis Set, Treatment Week 6 (Table 29)): −4.7 | SHAPS Total Score Mean Change from Baseline (SD) (fITT Analysis Set, Treatment Week 6 (Table 30)): −4.7 (5.91) | SHAPS Total Score Change from Baseline LSMean (SE) [18]: −4.5 | SHAPS Total Score LSMean Difference (SE) Treatment Placebo [18]: −0.8 (0.73) | SHAPS Total Score Effect Size [18]: −0.08 | SHAPS total score mean change from treatment baseline (SD) (fITT, Treatment Week 6): −4.7 (5.91) | SHAPS total score observed effect size (fITT, Treatment Week 6): 0.08
